Data from PMC6694155, “PTPσ inhibitors promote hematopoietic stem cell regeneration” (Nature Communications, 2019).
Where “and” joins values, the source holds several entries; their conditions need not be identical. Identical values can stand only once.

Columns and labels:
PTPσ = target: T1, PTPσ (Mus musculus, UniProt B0V2N1); assay: Substrate titration of PTPσ (Km, Vmax, mechanism of inhibition); format: biochemical
T1 sequence (B0V2N1 1326-1907): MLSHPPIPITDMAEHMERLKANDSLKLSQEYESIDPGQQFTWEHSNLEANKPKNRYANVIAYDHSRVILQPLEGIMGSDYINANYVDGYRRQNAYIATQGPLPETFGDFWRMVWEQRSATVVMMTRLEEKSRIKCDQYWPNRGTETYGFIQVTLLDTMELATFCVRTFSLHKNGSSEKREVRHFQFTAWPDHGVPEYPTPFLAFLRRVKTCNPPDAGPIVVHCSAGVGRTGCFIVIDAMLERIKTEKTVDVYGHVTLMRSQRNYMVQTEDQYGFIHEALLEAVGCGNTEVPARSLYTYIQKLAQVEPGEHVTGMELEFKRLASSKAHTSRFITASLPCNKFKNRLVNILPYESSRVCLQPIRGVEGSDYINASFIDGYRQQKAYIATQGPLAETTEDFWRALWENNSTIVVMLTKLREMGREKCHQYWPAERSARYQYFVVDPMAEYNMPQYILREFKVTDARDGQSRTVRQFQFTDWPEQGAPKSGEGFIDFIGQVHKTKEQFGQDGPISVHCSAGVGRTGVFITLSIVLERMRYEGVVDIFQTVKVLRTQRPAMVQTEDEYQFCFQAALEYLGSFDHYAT
Protocol: The two intracellular catalytic domains (D1 and D2) of Ptprs were cloned into a pET28a vector, overexpressed in Escherichia coli BL21 and purified. Enzymatic activity of PTPσ was assayed using a modified version of the Malachite Green Assay[66] and the Tyrosine Phosphatase Assay Kit (Promega Corporation). Unless stated otherwise, standard assays were carried out using 50 nM PTPσ protein in 1× Buffer (10 mM Tris, 5 mM MgCl2, 10 mM NaCl, 0.02% Tween) and Tyr Phosphopeptide as substrate (200 μM for Fig. 1b, c, 50–1200 μM in Fig. 1c). Purified catalytic domain 1 and domain 2 of PTPσ were pre-incubated with test compounds 3071, 5205, 5075, or control for 15 min in a 96-well plate before the addition of Tyr Phosphopeptide (DADE(pY)LIPQQG). For IC50 determination, rates normalized relative to uninhibited controls (dimethyl sulfoxide (DMSO)) were plotted against compound concentration and fitted using a four-parameter nonlinear regression curve fit ((y = [(A − D) (1 + {xC − 1}B) − 1] + D) (Prism 6.0, Graphpad Software). For mechanism studies and determination of the enyzme’s Km and Vmax, data were analyzed using a nonlinear regression fit according to the classical Michaelis–Menten kinetics model, Y = Vmax*X/(Km + X) (Prism 6.0, Graphpad Software).

[1] = target: T2, LMPTP-B (Low Molecular Weight Protein Tyrosine phosphatase B) (Homo sapiens, UniProt P24666); assay: PhosphataseProfiler screen: LMPTP-B; format: biochemical; details: replicates
T2 construct: purchased Eurofins Pharma Discovery Services UK
Protocol: Compound DJ001 was evaluated in a PhosphataseProfiler™ screen at 10 μM and 1 μM (2.7 μg/mL and 0.27 μg/mL) concentrations at Eurofins Pharma Discovery Services UK (Study number UK022-0004033) against a panel of 21 Phosphatases. In each experiment, the respective reference antagonist/agonist was tested directly with DJ001 and the data were compared with historical values determined at Eurofins. DJ001 compound inhibition was calculated as percentage inhibition of the enzymatic activity compared with control.

T2 sequence (P24666 1-158 isoform P24666-2, species assumed): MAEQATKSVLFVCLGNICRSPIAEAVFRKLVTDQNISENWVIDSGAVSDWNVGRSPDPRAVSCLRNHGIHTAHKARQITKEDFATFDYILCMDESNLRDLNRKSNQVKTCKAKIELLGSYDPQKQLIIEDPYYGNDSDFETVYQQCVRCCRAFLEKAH

O=C(/C=C\Nc1cccc([N+](=O)[O-])c1)c1ccccc1 [DJ001, (Z)-3-((3-nitrophenyl)amino)-1-phenylprop-2-en-1-one]
substrate titration source data, rate per replicate (PTPσ; 25M DJ001, Substrate 50 uM): 9 | substrate titration source data, rate per replicate (PTPσ; 25M DJ001, Substrate 50 uM, 25 µM DJ001): 12.3 | substrate titration source data, rate per replicate (PTPσ; 25M DJ001, Substrate 100 uM): 13.4 | substrate titration source data, rate per replicate (PTPσ; 25M DJ001, Substrate 100 uM, 25 µM DJ001): 16.2 | substrate titration source data, rate per replicate (PTPσ; 25M DJ001, Substrate 200 uM): 26.7 | substrate titration source data, rate per replicate (PTPσ; 25M DJ001, Substrate 200 uM, 25 µM DJ001): 26 | substrate titration source data, rate per replicate (PTPσ; 25M DJ001, Substrate 400 uM): 42.9 | substrate titration source data, rate per replicate (PTPσ; 25M DJ001, Substrate 400 uM, 25 µM DJ001): 40.9 | substrate titration source data, rate per replicate (PTPσ; 25M DJ001, Substrate 800 uM): 54.8 | substrate titration source data, rate per replicate (PTPσ; 25M DJ001, Substrate 800 uM, 25 µM DJ001): 50.4 | substrate titration source data, rate per replicate (PTPσ; 25M DJ001, Substrate 1200 uM): 57.8 | substrate titration source data, rate per replicate (PTPσ; 25M DJ001, Substrate 1200 uM, 25 µM DJ001): 55.4 | substrate titration source data, rate per replicate (PTPσ; 50M DJ001, Substrate 50 uM, 50 µM DJ001): 7.7 and 8 | substrate titration source data, rate per replicate (PTPσ; 50M DJ001, Substrate 100 uM, 50 µM DJ001): 9.1 and 9.9 | substrate titration source data, rate per replicate (PTPσ; 50M DJ001, Substrate 200 uM, 50 µM DJ001): 14.1 and 15.3 | substrate titration source data, rate per replicate (PTPσ; 50M DJ001, Substrate 400 uM, 50 µM DJ001): 23.2 and 23.4 | substrate titration source data, rate per replicate (PTPσ; 50M DJ001, Substrate 800 uM, 50 µM DJ001): 28.7 and 27 | substrate titration source data, rate per replicate (PTPσ; 50M DJ001, Substrate 1200 uM, 50 µM DJ001): 34.7 and 35 | substrate titration source data, rate per replicate (PTPσ; 100M DJ001, Substrate 50 uM): 7.7 and 7.4 | substrate titration source data, rate per replicate (PTPσ; 100M DJ001, Substrate 100 uM): 7.7 | substrate titration source data, rate per replicate (PTPσ; 100M DJ001, Substrate 200 uM): 8.9 | substrate titration source data, rate per replicate (PTPσ; 100M DJ001, Substrate 400 uM): 13.4 and 13.9 | substrate titration source data, rate per replicate (PTPσ; 100M DJ001, Substrate 800 uM): 17.3 and 16.7 | substrate titration source data, rate per replicate (PTPσ; 100M DJ001, Substrate 1200 uM): 25.5 and 23.8 | mechanism of PTPσ inhibition (PTPσ; substrate titration, inhibits Vmax, constant Km): non-competitive inhibitor | Supplementary Figure 1: LMPTP-B activity ([1]; 0.27 g/mL DJ001): 96 and 90 and 99 | Supplementary Figure 1: LMPTP-B activity ([1]; 2.7 g/mL DJ001): 99 and 100 and 91
